Several values for one entry are separate records, joined by “and”; a condition that tells them apart may be missing. Identical values can stand only once.
Experiments:
[1] = tested on: tobacco budworms (Heliothis virescens); test: pesticidal test against tobacco budworms; conditions: liquid composition containing 500 ppm by weight of compound
Protocol: (§1) The activities of individual compounds of formula (I) were determined using a variety of pests. The pests were treated with a liquid composition containing 500 parts per million (ppm) by weight of a compound of formula (I). Each composition was made by dissolving the compound in an acetone and ethanol (50:50 by volume) mixture and diluting the solution with water containing 0.05% by volume of a wetting agent, SYNPERONIC NP8, until the liquid composition contained the required concentration of the compound.
(§2) The test procedure adopted with regard to each pest was essentially the same and comprised supporting a number of the pests on a medium, which was usually a substrate, a host plant or a foodstuff on which the pests feed, and treating either or both the medium and the pests with a composition. Pest mortality was assessed usually between two and five days after treatment.
(§3) Similar tests were conducted against, independently, two-spotted spider mites (Tetranychus urticae), fruit flies (Drosophila melanogaster), tobacco budworms (Heliothis virescens), diamond back moth (Plutella xylostella) and corn root worm (Diabrotica balteata).

[2] = tested on: peach potato aphids (Myzus persicae); conditions: 500 ppm by weight; infested Chinese cabbage leaves sprayed; mortality assessed after three days
Protocol: This Example illustrates the pesticidal/insecticidal properties of compounds of formula (I). The activities of individual compounds of formula (I) were determined using a variety of pests. The pests were treated with a liquid composition containing 500 parts per million (ppm) by weight of a compound of formula (I). Each composition was made by dissolving the compound in an acetone and ethanol (50:50 by volume) mixture and diluting the solution with water containing 0.05% by volume of a wetting agent, SYNPERONIC NP8, until the liquid composition contained the required concentration of the compound.
as §2
In each test against peach potato aphids (Myzus persicae), Chinese cabbage leaves were infested with aphids, the infested leaves were sprayed with a test composition and pest mortality was assessed after three days.

[3] = tested on: corn root worm (Diabrotica balteata); test: pesticidal test against corn root worm; conditions: liquid composition containing 500 ppm by weight of compound
Protocol: as §1, §2, §3

[4] = tested on: fruit flies (Drosophila melanogaster); test: pesticidal test against fruit flies; conditions: liquid composition containing 500 ppm by weight of compound
[5] = tested on: diamond back moth (Plutella xylostella); test: pesticidal test against diamond back moth; conditions: liquid composition containing 500 ppm by weight of compound
Protocol: as §1, §2, §3

[6] = tested on: two-spotted spider mites (Tetranychus urticae); conditions: liquid composition containing 500 ppm by weight of compound
Protocol: as §1, §2, §3

Compound | mortality (score) Hv [1] | mortality (score) Mp [2] | mortality (score) Db [3] | mortality (score) Dm [4] | mortality (score) Px [5] | mortality (score) Tu [6]
CCOCN(C(=O)C(C)c1ccc2oc(CC(C)C)nc2c1)c1snc(C)c1Cl (stereo not shown) [Table 1 Compound 76] | 5 (5 indicates 40-79% mortality) | 9 (9 indicates 80-100% mortality) | 9 (9 indicates 80-100% mortality) | 9 (9 indicates 80-100% mortality) | 9 (9 indicates 80-100% mortality) | –
CCOCN(C(=O)C(C)c1ccc2oc(CC(C)(C)C)nc2c1)c1snc(C)c1Cl (stereo not shown) [Table 1 Compound 77] | 9 (9 indicates 80-100% mortality) | 9 (9 indicates 80-100% mortality) | 9 (9 indicates 80-100% mortality) | 0 (represents less than 40% mortality) | 9 (9 indicates 80-100% mortality) | –
CCOCN(C(=O)C(C)c1ccc2oc(CC(F)(F)F)nc2c1)c1snc(C)c1Cl (stereo not shown) [Table 1 Compound 78] | 9 (9 indicates 80-100% mortality) | 9 (9 indicates 80-100% mortality) | 9 (9 indicates 80-100% mortality) | 9 (9 indicates 80-100% mortality) | 9 (9 indicates 80-100% mortality) | –
CCOCN(C(=O)C(C)c1ccc2oc(C(F)(F)C(F)(F)C(F)(F)F)nc2c1)c1snc(C)c1Cl (stereo not shown) [Table 1 Compound 80] | 9 (9 indicates 80-100% mortality) | 5 (5 indicates 40-79% mortality) | 9 (9 indicates 80-100% mortality) | 0 (represents less than 40% mortality) | 9 (9 indicates 80-100% mortality) | –
CCOCN(C(=O)C(C)c1ccc2oc(CC(C)(C)C)nc2c1)c1snc(CC)c1Cl (stereo not shown) [Table 1 Compound 157] | 9 (9 indicates 80-100% mortality) | 9 (9 indicates 80-100% mortality) | 9 (9 indicates 80-100% mortality) | 0 (represents less than 40% mortality) | 9 (9 indicates 80-100% mortality) | –
Cc1nsc(NC(=O)C(F)c2ccc3oc(C(F)(F)C(F)(F)C(F)(F)F)nc3c2)c1Cl (stereo not shown) [Table 5 Compound 10] | 9 (9 indicates 80-100% mortality) | 9 (9 indicates 80-100% mortality) | 9 (9 indicates 80-100% mortality) | 9 (9 indicates 80-100% mortality) | 9 (9 indicates 80-100% mortality) | –
CCOCN(C(=O)C(F)c1ccc2oc(CC(C)(C)C)nc2c1)c1snc(C)c1Cl (stereo not shown) [Table 5 Compound 77] | 5 (5 indicates 40-79% mortality) | 9 (9 indicates 80-100% mortality) | 9 (9 indicates 80-100% mortality) | 0 (represents less than 40% mortality) | 9 (9 indicates 80-100% mortality) | –
CCOCN(C(=O)C(F)c1ccc2oc(CC(C)(C)C)nc2c1)c1snc(CC)c1Cl (stereo not shown) [Table 5 Compound 157] | 9 (9 indicates 80-100% mortality) | 9 (9 indicates 80-100% mortality) | 9 (9 indicates 80-100% mortality) | 9 (9 indicates 80-100% mortality) | 9 (9 indicates 80-100% mortality) | –
Cc1nsc(NC(=O)C(O)c2ccc3oc(CC(C)(C)C)nc3c2)c1Cl (stereo not shown) [Table 7 Compound 7] | – | 0 (represents less than 40% mortality) | – | 9 (9 indicates 80-100% mortality) | 9 (9 indicates 80-100% mortality) | 9 (9 indicates 80-100% mortality)
CCc1nsc(NC(=O)C(OC)c2ccc3oc(CC(C)C)nc3c2)c1Cl (stereo not shown) [Table 9 Compound 86] | 9 (9 indicates 80-100% mortality) | 9 (9 indicates 80-100% mortality) | 9 (9 indicates 80-100% mortality) | 5 (5 indicates 40-79% mortality) | 9 (9 indicates 80-100% mortality) | –
Cc1nsc(NC(=O)C(=O)c2ccc3oc(CC(C)(C)C)nc3c2)c1Cl [Table 10 Compound 7] | – | 9 (9 indicates 80-100% mortality) | – | – | 9 (9 indicates 80-100% mortality) | 0 (represents less than 40% mortality)
Cc1nsc(NC(=O)C(=CNCc2ccc(Cl)cc2)c2ccc3oc(CC(C)(C)C)nc3c2)c1Cl [Table 19 Compound 7] | – | 5 (5 indicates 40-79% mortality) and 9 (9 indicates 80-100% mortality) | – | – | – | 9 (9 indicates 80-100% mortality)
Cc1nsc(NC(=O)C(SC(C)C)c2ccc3oc(CC(C)(C)C)nc3c2)c1Cl (stereo not shown) [Table 22 Compound 7] | – | 0 (represents less than 40% mortality) | – | – | – | 9 (9 indicates 80-100% mortality)
CCc1nsc(NC(=O)C(C)c2ccc3sc(CC(C)(C)C)nc3c2)c1Cl (stereo not shown) [Table 39 Compound 87] | 9 (9 indicates 80-100% mortality) | 0 (represents less than 40% mortality) | 9 (9 indicates 80-100% mortality) | 0 (represents less than 40% mortality) | 9 (9 indicates 80-100% mortality) | –
CCOCN(C(=O)C(C)c1ccc2sc(CC(C)(C)C)nc2c1)c1snc(CC)c1Cl (stereo not shown) [Table 39 Compound 157] | 9 (9 indicates 80-100% mortality) | 9 (9 indicates 80-100% mortality) | 9 (9 indicates 80-100% mortality) | 0 (represents less than 40% mortality) | 9 (9 indicates 80-100% mortality) | –
Cc1nsc(NC(=O)C(F)c2ccc3sc(CC(C)(C)C)nc3c2)c1Cl (stereo not shown) [Table 42 Compound 7] | 9 (9 indicates 80-100% mortality) | 9 (9 indicates 80-100% mortality) | 9 (9 indicates 80-100% mortality) | 9 (9 indicates 80-100% mortality) | 5 (5 indicates 40-79% mortality) | –
CCc1nsc(NC(=O)C(F)c2ccc3sc(CC(C)(C)C)nc3c2)c1Cl (stereo not shown) [Table 42 Compound 87] | 9 (9 indicates 80-100% mortality) | 9 (9 indicates 80-100% mortality) | 9 (9 indicates 80-100% mortality) | 9 (9 indicates 80-100% mortality) | 9 (9 indicates 80-100% mortality) | –
